Reference: PMC5301048, “Selection and early clinical evaluation of the brain‐penetrant 11β‐hydroxysteroid dehydrogenase type 1 (11β‐HSD1) inhibitor UE2343 (Xanamem™)” (British Journal of Pharmacology, 2017)
Values after ≈ are worked out from the molar mass of the structure shown. Like-named read-outs stand apart in the source and are kept apart here.

Experiments:
[1] = Aqueous solubility at pH 7.4; type: physicochemical; conditions: aqueous phosphate buffer, thermodynamic from solid, pH 7.4, room temperature, mean ± SD [n]
Experimental: The concentration was quantified by HPLC with reference to a standard calibration curve. The solubility was calculated using the peak areas determined by integration of the peak found at the same retention time as the principal peak in the standard injection.

[2] = Single ascending dose study, pharmacokinetics; type: in vivo; conditions: human; for half-life / Cmax / Tmax / CL renal: both sexes; for half-life / Cmax / Tmax: plasma; for Tmax: median (range); for CL renal: urine and plasma
Experimental: A double‐blind, randomized, placebo‐controlled single ascending dose study was carried out at Simbec Research Ltd, Merthyr Tydfil, UK. Each cohort consisted of six healthy male subjects and two females of non‐child bearing potential. Two male ‘dose leader’ subjects (1 active : 1 placebo) were dosed first in each cohort. The remainder of the cohort (5 active : 1 placebo) were dosed 24 h later. Dose cohorts were 2, 5, 10, 18, 25 and 35 mg. Safety, pharmacokinetic and pharmacodynamic assessments were made at pre‐determined time‐points during each part of the study. Dose escalation was dependent upon satisfactory review of the blinded safety (up to Day 6) and pharmacokinetic (up to 24 h post‐dose) data from the preceding cohort.
Laboratory evaluation of clinical safety parameters was carried out using standard validated methods. Measurement of plasma pharmacodynamic markers [adrenocorticotropic hormone (ACTH), cortisol, 4‐androstenedione, testosterone and dehydroepiandrosterone sulphate (DHEA‐s)] was carried out using commercially available kits. Each method was fully validated prior to analysis. Urinary steroid metabolites were measured according to established methods (Boonen et al., 2013). UE2343 levels in plasma, urine and CSF was determined by LC–MS/MS using fully validated methods.
The data and statistical analysis comply with the recommendations on experimental design and analysis in pharmacology (Curtis et al., 2015). Levels of probability, P < 0.05 were deemed to constitute the threshold for statistical significance. Pharmacokinetic parameters, except Tmax (time of maximum observed drug concentration), are given as mean ± coefficient of variation (CV%). Tmax is given as median ± range. For each of the pharmacodynamic parameters [ACTH, cortisol, adrenal androgens, tetrahydrocortisols (THFs)/tetrahydrocortisone (THE) ratio], the maximum % change from baseline for each subject was subjected to ANOVA. For selected data, an additional covariate factor for the baseline was also included in the ANOVA/analysis of covariance (ANCOVA) model. Associated P‐values <0.05 for each comparison have been presented.

CYP2C9 = biological target: T1, CYP2C9 (Homo sapiens, UniProt P11712); assay: Cytochrome P450 inhibition, CYP2C9; type: in vitro ADME; conditions: human liver microsomes; read-out: CYP450 isoform 2C9 IC50
T1 construct: tissue Cyprotex Discovery Limited; host or cells: human liver microsomes
Experimental: (§1) Testing was performed by Cyprotex Discovery Limited, Cheshire, UK. Six test compound concentrations (0.4, 1, 4, 10, 40 and 100 μM; final DMSO concentration 0.25%, final microsome concentration 0.25 mg·mL^−1) were either pre‐incubated for 30 min in the absence and presence of NADPH or underwent a 0 min pre‐incubation with human liver microsomes. At the end of the pre‐incubation period, the probe substrate for each cytochrome P450 (CYP450) isoform (30 μM) and NADPH (1 mM) were then added (final DMSO concentration 0.3%), and the samples were incubated for 5 min at 37°C. Probe substrates were as follows: 1A2 – phenacetin, 2C9 – diclofenac, 2C19 – mephenytoin, 2D6 – dextromethorphan, 3A4 – midazolam and testosterone. Samples were subjected to LC–MS/MS analysis to determine metabolite concentrations. A decrease in the formation of the metabolite compared with vehicle control was used to calculate an IC50 value (test compound concentration which produces 50% inhibition) for each experimental condition.

CYP2C19 = biological target: T2, CYP2C19 (Homo sapiens, UniProt P33261); assay: Cytochrome P450 inhibition, CYP2C19; type: in vitro ADME; conditions: human liver microsomes; read-out: CYP450 isoform 2C19 IC50
T2 construct: tissue Cyprotex Discovery Limited; host or cells: human liver microsomes
Experimental: as §1

[3] = Plasma protein binding, human plasma; type: in vitro ADME
Experimental: Plasma protein binding was determined using pooled human plasma according to the method described in WO2011135276 (Webster et al., 2011a).

CYP1A2 = biological target: T3, CYP1A2 (Homo sapiens, UniProt P05177); assay: Cytochrome P450 inhibition, CYP1A2; type: in vitro ADME; conditions: human liver microsomes; read-out: CYP450 isoform 1A2 IC50
T3 construct: tissue Cyprotex Discovery Limited; host or cells: human liver microsomes
T3 sequence (P05177 1-516): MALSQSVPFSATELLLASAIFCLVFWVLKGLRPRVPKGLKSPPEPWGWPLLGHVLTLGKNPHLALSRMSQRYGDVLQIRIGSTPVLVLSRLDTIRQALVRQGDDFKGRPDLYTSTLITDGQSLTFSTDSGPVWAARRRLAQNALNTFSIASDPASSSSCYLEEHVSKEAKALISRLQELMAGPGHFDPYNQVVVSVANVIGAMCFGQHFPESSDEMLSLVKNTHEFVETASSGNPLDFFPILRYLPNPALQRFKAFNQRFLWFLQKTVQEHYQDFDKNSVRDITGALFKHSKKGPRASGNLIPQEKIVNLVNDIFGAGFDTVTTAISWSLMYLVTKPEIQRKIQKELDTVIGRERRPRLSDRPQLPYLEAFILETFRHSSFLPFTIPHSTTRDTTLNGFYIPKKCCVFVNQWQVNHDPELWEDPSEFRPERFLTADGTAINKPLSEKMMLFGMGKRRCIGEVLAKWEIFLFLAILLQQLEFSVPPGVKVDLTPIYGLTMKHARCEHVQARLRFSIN
Experimental: as §1

[4] = Microsomal stability, dog liver microsomes; type: in vitro ADME; conditions: mean ± SD [n]
Experimental: Microsomal stability was determined using pooled human, rat or dog liver microsomes according to the method described in WO2011135276 (Webster et al., 2011a).

[5] = single oral dose 10 mg, mean (CV%)
[6] = single oral dose 18 mg, mean (CV%)
[7] = single oral dose 25 mg, mean (CV%)
[8] = single oral dose 35 mg, mean (CV%)

T2 sequence (P33261 whole entry, canonical isoform): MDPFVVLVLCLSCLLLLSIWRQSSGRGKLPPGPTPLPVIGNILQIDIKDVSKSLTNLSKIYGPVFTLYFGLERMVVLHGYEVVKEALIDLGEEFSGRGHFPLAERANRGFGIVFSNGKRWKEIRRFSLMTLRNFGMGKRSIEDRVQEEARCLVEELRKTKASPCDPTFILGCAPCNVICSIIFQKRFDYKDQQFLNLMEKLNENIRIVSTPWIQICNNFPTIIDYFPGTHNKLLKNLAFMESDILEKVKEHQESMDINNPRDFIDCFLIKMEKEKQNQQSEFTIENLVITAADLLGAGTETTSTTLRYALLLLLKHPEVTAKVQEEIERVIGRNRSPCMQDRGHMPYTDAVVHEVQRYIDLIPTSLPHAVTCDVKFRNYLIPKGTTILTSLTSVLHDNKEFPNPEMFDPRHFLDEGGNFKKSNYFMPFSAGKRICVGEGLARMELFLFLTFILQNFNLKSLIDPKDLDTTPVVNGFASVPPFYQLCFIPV
T1 sequence (P11712 whole entry, canonical isoform): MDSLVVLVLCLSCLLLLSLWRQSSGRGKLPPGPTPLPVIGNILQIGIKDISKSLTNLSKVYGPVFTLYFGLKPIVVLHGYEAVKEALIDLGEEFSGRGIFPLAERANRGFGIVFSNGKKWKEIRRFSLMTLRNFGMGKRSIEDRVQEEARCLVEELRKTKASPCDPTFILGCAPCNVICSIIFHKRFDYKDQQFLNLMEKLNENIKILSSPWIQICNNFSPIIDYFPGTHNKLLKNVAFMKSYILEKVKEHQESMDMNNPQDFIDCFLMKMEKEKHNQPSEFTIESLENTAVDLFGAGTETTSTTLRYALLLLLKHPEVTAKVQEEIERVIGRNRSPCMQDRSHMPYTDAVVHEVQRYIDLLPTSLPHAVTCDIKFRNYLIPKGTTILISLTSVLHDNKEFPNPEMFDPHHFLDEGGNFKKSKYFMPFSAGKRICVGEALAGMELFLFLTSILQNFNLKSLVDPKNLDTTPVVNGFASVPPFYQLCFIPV

solubility [1]: 200 µg/mL (≈ 524 µM)
half-life ([2]; oral, single doses, range across doses): 10.5 to 18.7 h
Cmax [2, 5]: 40.4 ng/mL
half-life [2, 5]: 18.7 h
Tmax ([2]; single oral dose 10 mg): 3.5 h
Cmax [2, 6]: 136 ng/mL
half-life [2, 6]: 13.6 h
Tmax ([2]; single oral dose 18 mg): 4 h
Cmax [2, 7]: 278 ng/mL
half-life [2, 7]: 10.5 h
Tmax ([2]; single oral dose 25 mg): 4 h
Cmax [2, 8]: 329 ng/mL
half-life [2, 8]: 11.4 h
Tmax ([2]; single oral dose 35 mg): 4 h
CL renal ([2]; oral, single doses, read-out: renal clearance (CLR)): < 2.17 mL/min
CL renal ([2]; single oral dose 10 mg, mean (CV%), read-out: CLR (renal clearance) (converted)): 1.17 mL/min
CL renal ([2]; single oral dose 18 mg, mean (CV%), read-out: CLR (renal clearance) (converted)): 2.67 mL/min
CL renal ([2]; single oral dose 25 mg, mean (CV%), read-out: CLR (renal clearance) (converted)): 2.17 mL/min
CL renal ([2]; single oral dose 35 mg, mean (CV%), read-out: CLR (renal clearance) (converted)): 2 mL/min
Urinary excretion, % of the respective doses ([2]; single doses): ≤ 1.8%
Plasma levels ([2]; single doses of 2 and 5 mg, in words): below the level of quantification
AUC0‐t [2, 5]: 550 (90%) ng^.h·mL^−1
AUC0‐∞ [2, 5]: 856 (70%) ng^.h·mL^−1
Oral clearance [2, 5]: 18.5 (75%) L·h^−1
AUC0‐t [2, 6]: 2291 (87%) ng^.h·mL^−1
AUC0‐∞ [2, 6]: 2581 (84%) ng^.h·mL^−1
Oral clearance [2, 6]: 14.5 (90%) L·h^−1
AUC0‐t [2, 7]: 3486 (39%) ng^.h·mL^−1
AUC0‐∞ [2, 7]: 3825 (35%) ng^.h·mL^−1
Oral clearance [2, 7]: 7.32 (38%) L·h^−1
AUC0‐t [2, 8]: 4016 (30%) ng^.h·mL^−1
AUC0‐∞ [2, 8]: 4261 (29%) ng^.h·mL^−1
Oral clearance [2, 8]: 8.78 (28%) L·h^−1
IC50 (CYP2C9): > 50 µM
IC50 (CYP2C19): 1.7 µM
Plasma protein binding (% unbound), human ([3]; human plasma, mean ± SD [n]): 30 ± 2 [2] % unbound
fraction unbound ([3]; human, pooled human plasma, read-out: bound to plasma proteins (converted)): 0.3
IC50 (CYP1A2): > 50 µM
Liver microsomal stability (% parent at 30 min), dog [4]: 92 ± 5 [3] % parent at 30 min
Structure (SMILES): O=C(c1csc(-c2cn[nH]c2)c1)N1C2CCC1CC(O)(c1ncccn1)C2 (centres unmarked) [compound 4]
Ae(0–120h) (%) [2, 5]: 0.53 (85%)
Ae(0–120h), amount excreted in urine [2, 5]: 52.5 (85%) μg
Ae(0–120h) (%) [2, 6]: 1.67 (66%)
Ae(0–120h), amount excreted in urine [2, 6]: 300 (66%) μg
Ae(0–120h) (%) [2, 7]: 1.75 (37%)
Ae(0–120h), amount excreted in urine [2, 7]: 438 (37%) μg
Ae(0–120h) (%) [2, 8]: 1.43 (15%)
Ae(0–120h), amount excreted in urine [2, 8]: 501 (15%) μg
